Laboratory results published in PubChem BioAssay AID1919016 (Molecular Pharmacology Branch, DTP, NCI, 2023).

Tested on: NCI-H196 complex spheroid growth, percent test/control
Assay: Anticancer human tumor NCI-H196 cell line growth inhibition [AhR];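 note: seven days of drug exposure starting three days after plating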;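 for viability, T/C: 100% = DMSO vehicle control wells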
Conditions: for IC50: curve of first compound; for viability, T/C: stronger effect = lower value
From the text: Multicellular complex tumor spheroid response to aryl hydrocarbon receptor antagonists in combination with a variety of drugs and investigational agents in selected tumor cell lines
The current study was undertaken to assess response to aryl hydrocarbon receptor antagonists in combination with standard-of-care drugs and investigational agents in solid tumor complex spheroid models. Complex spheroids include a stromal component modeled by human endothelial cells (HUVEC) and fibroblasts modeled by human mesenchymal stem cells (MSCs). The concentration ranges selected for each drug and investigational agent were based upon clinically achievable concentrations if the clinical Cmax of the agent was known.
Compounds. The drugs and investigational agents: BAY 2416964 (NSC825713), GNF351 (NSC835774), CH-223191 (NSC835775), CPI-455 (NSC825282), aza-TdCyd (NSC777586), decitabine (NSC127716), belinostat (NSC758774), entinostat (NSC756642), pevonedistat (NSC761192), tazemetostat (NSC777109), talazoparib (NSC765396), olaparib (NSC753686), selinexor (NSC780203), nedisertib (M3814, NSC802822), bortezomib (NSC756655), venetoclax (NSC766270), doxorubicin (NSC123127), elimusertib (BAY189344, NSC800525), ceralasertib (AZD6738, NSC777638), TAK-243 (NSC785004), alisertib (NSC759677), etoposide (NSC141540), topotecan (NSC609699), eribulin (NSC707389), gemcitabine (NSC613327), carboplatin (NSC241240), cisplatin (NSC119875), and SN-38 (NSC673596) were obtained from the National Cancer Institute (NCI) Developmental Therapeutics Program Chemical Repository (32). The FDA-approved anticancer drug set is available from the Developmental Therapeutics Program at https://dtp.cancer.gov/organization/dscb/obtaining/available plates.htm. […] The stock solutions were prepared in dimethyl sulfoxide (DMSO, Sigma-Aldrich, St. Louis, MO, cat. D2650), except for the platinum compounds which were prepared in saline (Quality Biological, Gaithersburg, MD, cat. 114-055-101), at 800-fold the tested concentration and stored at -70 degrees C prior to their use. All drugs and investigational agents were tested over a range starting from a high concentration at or near the clinical Cmax and decreasing in half-log increments. If the clinical Cmax for an agent had not been determined, the highest concentration tested was 10 microM (Table 1).
Cell Culture. All cells were maintained in an incubator at 37 degrees C and 5% CO2 with 95% humidity. The PDC lines were cultured according to standard operating procedures established by the NCI PDMR (https://pdmr.cancer.gov). Briefly, all PDCs were thawed and cultured in Matrigel-coated flasks prepared with a working solution of 1X Ham's F-12 nutrient mix, without supplementation (Invitrogen, Waltham, MA, cat. 11765054), 100 U/mL penicillin-streptomycin (Invitrogen, cat. 15140122), and 2.5% Matrigel (Corning Inc., Corning, NY, cat. 354248) for the first three passages. All PDCs were cultured in complete DMEM/F-12 media containing advanced DMEM/F-12 (Invitrogen, cat. 12634028), 4.9% defined fetal bovine serum, heat inactivated (HyClone Laboratories Inc., Logan, UT, cat. SH30070.03HI), 389 ng/mL hydrocortisone (Sigma-Aldrich, cat. H4001), 9.7 ng/mL human EGF recombinant protein (Invitrogen, cat. PHG0313), 23.4 microg/mL adenine (Sigma-Aldrich, cat. A2786), 97.3 U/mL penicillin-streptomycin (Invitrogen, cat. 15140122), 1.9 mM L-glutamine (Invitrogen, cat. 25030081), and 9.7 microM Y-27632 dihydrochloride (Tocris Bioscience, Bristol, United Kingdom, cat. 1254). The PDCs were cultured in complete DMEM/F12 media without 10 microM Y-27632 dihydrochloride for at least two passages prior to the screen. The established cell lines NCI-H1341 and […] were cultured in DMEM/F-12, HEPES (Invitrogen, cat. 11330032), 5% defined fetal bovine serum (HyClone Laboratories Inc., cat. SH30070.03), ITS premix universal culture supplement [insulin (5 microg/mL), transferrin (5 microg/mL), and selenious acid (5 ng/mL)] […]

[1] = second compound 0.1 µM, first compound 0.0316 µM
[2] = second compound 0.1 µM, first compound 0.1 µM
[3] = second compound 0.1 µM, first compound 0.316 µM
[4] = second compound 0.1 µM, first compound 1 µM
[5] = second compound 0.1 µM, first compound 3.16 µM
[6] = second compound 0.1 µM, first compound 10 µM
[7] = second compound 0.316 µM, first compound 0.0316 µM
[8] = second compound 0.316 µM, first compound 0.1 µM
[9] = second compound 0.316 µM, first compound 0.316 µM
[10] = second compound 0.316 µM, first compound 1 µM
[11] = second compound 0.316 µM, first compound 3.16 µM
[12] = second compound 0.316 µM, first compound 10 µM
[13] = second compound 1 µM, first compound 0.0316 µM
[14] = second compound 1 µM, first compound 0.1 µM
[15] = second compound 1 µM, first compound 0.316 µM
[16] = second compound 1 µM, first compound 1 µM
[17] = second compound 1 µM, first compound 3.16 µM
[18] = second compound 1 µM, first compound 10 µM
[19] = second compound 3.16 µM, first compound 0.0316 µM
[20] = second compound 3.16 µM, first compound 0.1 µM
[21] = second compound 3.16 µM, first compound 0.316 µM
[22] = second compound 3.16 µM, first compound 1 µM
[23] = second compound 3.16 µM, first compound 3.16 µM
[24] = second compound 3.16 µM, first compound 10 µM
[25] = second compound 10 µM, first compound 0.0316 µM
[26] = second compound 10 µM, first compound 0.1 µM
[27] = second compound 10 µM, first compound 0.316 µM
[28] = second compound 10 µM, first compound 1 µM
[29] = second compound 10 µM, first compound 3.16 µM
[30] = second compound 10 µM, first compound 10 µM

Row | Compound | IC50 (second compound 0.1 µM) | IC50 (second compound 0.316 µM) | IC50 (second compound 1 µM) | IC50 (second compound 3.16 µM) | IC50 (second compound 10 µM) | viability, T/C [1] | viability, T/C [2] | viability, T/C [3] | viability, T/C [4] | viability, T/C [5] | viability, T/C [6] | viability, T/C [7] | viability, T/C [8] | viability, T/C [9] | viability, T/C [10] | viability, T/C [11] | viability, T/C [12] | viability, T/C [13] | viability, T/C [14] | viability, T/C [15] | other results
1 | Nc1ccccc1NC(=O)c1ccc(CNC(=O)OCc2cccnc2)cc1 + CC(CO)NC(=O)c1cc(-c2ccc(Cl)cc2)nn(-c2cnn(C)c2)c1=O | 0.509 µM | 0.519 µM | 0.523 µM | 0.596 µM | 0.593 µM | 80.5% | 81.1% | 62.6% | 29.9% | 15.4% | 0.46% | 87.5% | 81.5% | 61.6% | 33.7% | 12.8% | 0.5% | 87.9% | 79.3% | 63.2% | viability, T/C [16]: 32.9%; viability, T/C [17]: 14.5%; viability, T/C [18]: 0.63%; viability, T/C [19]: 85.6%; viability, T/C [20]: 89.4%; viability, T/C [21]: 65.3%; viability, T/C [22]: 34.7%; viability, T/C [23]: 15.3%; viability, T/C [24]: 0.42%; viability, T/C [25]: 91.7%; viability, T/C [26]: 87.5%; viability, T/C [27]: 74.1%; viability, T/C [28]: 29.2%; viability, T/C [29]: 12.9%; viability, T/C [30]: 0.86%
2 | NS(=O)(=O)OCC1CC(n2ccc3c(NC4CCc5ccccc54)ncnc32)CC1O (stereo not given) + CC(CO)NC(=O)c1cc(-c2ccc(Cl)cc2)nn(-c2cnn(C)c2)c1=O | > 10 µM | > 10 µM | > 10 µM | > 10 µM | > 10 µM | 85.4% | 79.8% | 67.1% | 61.3% | 62.9% | 60.2% | 82.8% | 85.2% | 68.8% | 59.2% | 52.5% | 55.7% | 87.2% | 74.4% | 67.6% | viability, T/C [16]: 57.5%; viability, T/C [17]: 61.2%; viability, T/C [18]: 51.4%; viability, T/C [19]: 81.4%; viability, T/C [20]: 83.7%; viability, T/C [21]: 71.1%; viability, T/C [22]: 56.4%; viability, T/C [23]: 62.9%; viability, T/C [24]: 55.4%; viability, T/C [25]: 90.7%; viability, T/C [26]: 96.9%; viability, T/C [27]: 83.8%; viability, T/C [28]: 59.2%; viability, T/C [29]: 54%; viability, T/C [30]: 52.4%
3 | COc1cc(C2c3cc4c(cc3C(OC3OC5COC(C)OC5C(O)C3O)C3COC(=O)C23)OCO4)cc(OC)c1O (stereo not given) + CC(CO)NC(=O)c1cc(-c2ccc(Cl)cc2)nn(-c2cnn(C)c2)c1=O | > 10 µM | > 10 µM | > 10 µM | > 10 µM | > 10 µM | 113% | 116% | 101% | 112% | 104% | 101% | 109% | 118% | 102% | 104% | 109% | 94.9% | 117% | 106% | 119% | viability, T/C [16]: 106%; viability, T/C [17]: 110%; viability, T/C [18]: 105%; viability, T/C [19]: 103%; viability, T/C [20]: 110%; viability, T/C [21]: 119%; viability, T/C [22]: 110%; viability, T/C [23]: 117%; viability, T/C [24]: 97.9%; viability, T/C [25]: 126%; viability, T/C [26]: 128%; viability, T/C [27]: 114%; viability, T/C [28]: 109%; viability, T/C [29]: 115%; viability, T/C [30]: 95.6%
